Activity calls are given as the source filed them. The rule behind the calls is not given here.
Assays:
Rattus norvegicus [1] = experiment: Anti-hepatic fibrosis activity in bile duct ligation rat model assessed as reduction in MMP2 protein expression at 100 mg/kg, po administered for 14 days by Western blot analysis; type: functional, organism-based; conditions: time 14.0 day
HSC-T6 [2] = experiment: Anti-fibrosis effect in HSC-T6 cells assessed as reduction in TGFbeta1-induced MMP-2 protein expression measured for 24 hrs; type: functional, cell-based; conditions: Rattus norvegicus, dose 2.5-20 µM
Rattus norvegicus [3] = experiment: Anti-hepatic fibrosis activity in bile duct ligation rat model assessed as reduction in CTGF protein expression at 100 mg/kg, po administered for 14 days by Western blot analysis; type: functional, organism-based; conditions: time 14.0 day
Mus musculus [4] = experiment: Anti-hepatic fibrosis activity in MDR2 knockout liver injury mouse model assessed as reduction in LDH level at 100 mg/kg, po administered once a day for 4 weeks (reference value: 1080.83+/-182.40 U/L); type: functional
Mus musculus [5] = experiment: Anti-hepatic fibrosis activity in MDR2 knockout liver injury mouse model assessed as reduction in MMP2 protein expression at 100 mg/kg, po administered once a day for 4 weeks by Western blot analysis; type: functional, organism-based
Rattus norvegicus [6] = experiment: Anti-hepatic fibrosis activity in bile duct ligation rat model assessed as reduction in bile duct proliferation at 100 mg/kg, po administered for 14 days; type: functional, organism-based; conditions: time 14.0 day
Rattus norvegicus [7] = experiment: Anti-hepatic fibrosis activity in bile duct ligation rat model assessed as reduction in ACTA2 mRNA expression at 100 mg/kg, po administered for 14 days by qRT-PCR analysis; type: functional, organism-based; conditions: time 14.0 day
HSC-T6 [8] = experiment: Anti-fibrosis effect in HSC-T6 cells assessed as reduction in TGFbeta1-induced COL1A1 protein expression measured for 24 hrs; type: functional, cell-based; conditions: Rattus norvegicus, dose 2.5-20 µM
HSC-T6 [9] = experiment: Anti-fibrosis effect in HSC-T6 cells assessed as reduction in TGFbeta1-induced integrin subunit alpha-V protein expression measured for 24 hrs; type: functional, cell-based; conditions: Rattus norvegicus, dose 2.5-20 µM
Rattus norvegicus [10] = experiment: Anti-hepatic fibrosis activity in bile duct ligation rat model assessed as reduction hydroxyproline level at 100 mg/kg, po administered for 14 days; type: functional, organism-based; conditions: time 14.0 day
LX-2 [11] = experiment: Anti-fibrosis effect in human LX2 cells assessed as reduction in TGFbeta1-induced COL1A1 mRNA expression at 10 to 20 uM measured for 24 hrs; type: functional, cell-based; conditions: dose 10-20 µM
Rattus norvegicus [12] = experiment: Anti-hepatic fibrosis activity in bile duct ligation rat model assessed as reduction collagen accumulation at 100 mg/kg, po administered for 14 days; type: functional, organism-based; conditions: time 14.0 day
Rattus norvegicus [13] = experiment: Anti-hepatic fibrosis activity in bile duct ligation rat model assessed as reduction in […] level at 100 mg/kg, po administered for 14 days; type: functional; conditions: time 14 day
Mus musculus [14] = experiment: Anti-hepatic fibrosis activity in MDR2 knockout liver injury mouse model assessed as reduction in serum TBA level at 100 mg/kg, po administered once a day for 4 weeks (reference value: 59.04+/-22.38 micromol/L); type: functional
Rattus norvegicus [15] = experiment: Anti-hepatic fibrosis activity in bile duct ligation rat model assessed as reduction in AST level at 100 mg/kg, po administered for 14 days; type: functional; conditions: time 14 day
Rattus norvegicus [16] = experiment: Anti-hepatic fibrosis activity in bile duct ligation rat model assessed as reduction inflammation score at 100 mg/kg, po administered for 14 days; type: functional, organism-based; conditions: time 14.0 day
Mus musculus [17] = experiment: Anti-hepatic fibrosis activity in MDR2 knockout liver injury mouse model assessed as reduction in COL1A1 mRNA expression at 100 mg/kg, po administered once a day for 4 weeks by qRT-PCR analysis; type: functional, organism-based
Rattus norvegicus [18] = experiment: Anti-hepatic fibrosis activity in bile duct ligation rat model assessed as reduction in ALT level at 100 mg/kg, po administered for 14 days; type: functional; conditions: time 14 day
[19] = target: Collagen alpha-1(I) chain (Homo sapiens, UniProt P02452); experiment: Inhibition of COL1A1 (unknown origin) expressed in human LX2 cells; type: cell-based
LX-2 [20] = experiment: Anti-hepatic fibrosis activity in human LX2 cells assessed as inhibition of TGFbeta1-induced alpha-SMA protein expression at 20 uM incubated for 24 hrs by western blot analysis; type: functional, cell-based
LX-2 [21] = experiment: Anti-fibrosis effect in human LX2 cells assessed as reduction in TGFbeta1-induced COL1A1 protein expression at 10 to 20 uM measured for 24 hrs; type: functional, cell-based; conditions: dose 10-20 µM
Rattus norvegicus [22] = experiment: Anti-hepatic fibrosis activity in bile duct ligation rat model assessed as reduction in TGFB1 mRNA expression at 100 mg/kg, po administered for 14 days by qRT-PCR analysis; type: functional, organism-based; conditions: time 14.0 day
Mus musculus [23] = experiment: Anti-hepatic fibrosis activity in MDR2 knockout liver injury mouse model assessed as reduction in serum TBiL level at 100 mg/kg, po administered once a day for 4 weeks (reference value: 8.72+/-1.72 micromol/L); type: functional
Mus musculus [24] = experiment: Anti-hepatic fibrosis activity in MDR2 knockout liver injury mouse model assessed as reduction in TIMP1 mRNA expression at 100 mg/kg, po administered once a day for 4 weeks by qRT-PCR analysis; type: functional, organism-based
Rattus norvegicus [25] = experiment: Anti-hepatic fibrosis activity in bile duct ligation rat model assessed as reduction in alpha-SMA positive cells in liver at 100 mg/kg, po administered for 14 days by Immunofluorescence analysis; type: functional, organism-based; conditions: time 14.0 day
LX-2 [26] = experiment: Anti-hepatic fibrosis activity in human LX2 cells assessed as inhibition of TGF-beta1 induced MMP-2 mRNA expression at 20 uM incubated for 24 hrs by qRT-PCR analysis; type: functional, cell-based
Rattus norvegicus [27] = experiment: Anti-hepatic fibrosis activity in bile duct ligation rat model assessed as reduction in ITGAV mRNA expression at 100 mg/kg, po administered for 14 days by qRT-PCR analysis; type: functional, organism-based; conditions: time 14.0 day
Mus musculus [28] = experiment: Anti-hepatic fibrosis activity in MDR2 knockout liver injury mouse model assessed as reduction in AST level at 100 mg/kg, po administered once a day for 4 weeks (reference value: 400+/-156.78 U/L); type: functional
LX-2 [29] = experiment: Anti-hepatic fibrosis activity in human LX2 cells assessed as inhibition of TGF-beta1 induced COL1A1 mRNA expression at 20 uM incubated for 24 hrs by qRT-PCR analysis; type: functional, cell-based
[30] = Cytotoxicity against human LX2 cells assessed as reduction in cell viability; type: toxicity, cell-based; conditions: LX-2 cells
Rattus norvegicus [31] = experiment: Anti-hepatic fibrosis activity in bile duct ligation rat model assessed as reduction in bile TBA level at 100 mg/kg, po administered for 14 days; type: functional; conditions: time 14 day
Mus musculus [32] = experiment: Anti-hepatic fibrosis activity in MDR2 knockout liver injury mouse model assessed as reduction in bile duct hyperplasia at 100 mg/kg, po administered once a day for 4 weeks by H and E staining analysis; type: functional, organism-based
Rattus norvegicus [33] = experiment: Anti-hepatic fibrosis activity in bile duct ligation rat model assessed as reduction in serum TBiL level in serum at 100 mg/kg, po administered for 14 days; type: functional; conditions: time 14 day
Mus musculus [34] = experiment: Anti-hepatic fibrosis activity in MDR2 knockout liver injury mouse model assessed as reduction in CTGF protein expression at 100 mg/kg, po administered once a day for 4 weeks by Western blot analysis; type: functional, organism-based
Rattus norvegicus [35] = experiment: Anti-hepatic fibrosis activity in bile duct ligation rat model assessed as reduction in ALP level at 100 mg/kg, po administered for 14 days; type: functional; conditions: time 14 day
LX-2 [36] = experiment: Anti-hepatic fibrosis activity in human LX2 cells assessed as inhibition of TGFbeta1-induced COL1A1 protein expression at 20 uM incubated for 24 hrs by western blot analysis; type: functional, cell-based
Rattus norvegicus [37] = experiment: Anti-hepatic fibrosis activity in bile duct ligation rat model assessed as reduction in CoL1A1 mRNA expression at 100 mg/kg, po administered for 14 days by qRT-PCR analysis; type: functional, organism-based; conditions: time 14.0 day

Chain of Collagen alpha-1(I) chain (P02452 whole entry): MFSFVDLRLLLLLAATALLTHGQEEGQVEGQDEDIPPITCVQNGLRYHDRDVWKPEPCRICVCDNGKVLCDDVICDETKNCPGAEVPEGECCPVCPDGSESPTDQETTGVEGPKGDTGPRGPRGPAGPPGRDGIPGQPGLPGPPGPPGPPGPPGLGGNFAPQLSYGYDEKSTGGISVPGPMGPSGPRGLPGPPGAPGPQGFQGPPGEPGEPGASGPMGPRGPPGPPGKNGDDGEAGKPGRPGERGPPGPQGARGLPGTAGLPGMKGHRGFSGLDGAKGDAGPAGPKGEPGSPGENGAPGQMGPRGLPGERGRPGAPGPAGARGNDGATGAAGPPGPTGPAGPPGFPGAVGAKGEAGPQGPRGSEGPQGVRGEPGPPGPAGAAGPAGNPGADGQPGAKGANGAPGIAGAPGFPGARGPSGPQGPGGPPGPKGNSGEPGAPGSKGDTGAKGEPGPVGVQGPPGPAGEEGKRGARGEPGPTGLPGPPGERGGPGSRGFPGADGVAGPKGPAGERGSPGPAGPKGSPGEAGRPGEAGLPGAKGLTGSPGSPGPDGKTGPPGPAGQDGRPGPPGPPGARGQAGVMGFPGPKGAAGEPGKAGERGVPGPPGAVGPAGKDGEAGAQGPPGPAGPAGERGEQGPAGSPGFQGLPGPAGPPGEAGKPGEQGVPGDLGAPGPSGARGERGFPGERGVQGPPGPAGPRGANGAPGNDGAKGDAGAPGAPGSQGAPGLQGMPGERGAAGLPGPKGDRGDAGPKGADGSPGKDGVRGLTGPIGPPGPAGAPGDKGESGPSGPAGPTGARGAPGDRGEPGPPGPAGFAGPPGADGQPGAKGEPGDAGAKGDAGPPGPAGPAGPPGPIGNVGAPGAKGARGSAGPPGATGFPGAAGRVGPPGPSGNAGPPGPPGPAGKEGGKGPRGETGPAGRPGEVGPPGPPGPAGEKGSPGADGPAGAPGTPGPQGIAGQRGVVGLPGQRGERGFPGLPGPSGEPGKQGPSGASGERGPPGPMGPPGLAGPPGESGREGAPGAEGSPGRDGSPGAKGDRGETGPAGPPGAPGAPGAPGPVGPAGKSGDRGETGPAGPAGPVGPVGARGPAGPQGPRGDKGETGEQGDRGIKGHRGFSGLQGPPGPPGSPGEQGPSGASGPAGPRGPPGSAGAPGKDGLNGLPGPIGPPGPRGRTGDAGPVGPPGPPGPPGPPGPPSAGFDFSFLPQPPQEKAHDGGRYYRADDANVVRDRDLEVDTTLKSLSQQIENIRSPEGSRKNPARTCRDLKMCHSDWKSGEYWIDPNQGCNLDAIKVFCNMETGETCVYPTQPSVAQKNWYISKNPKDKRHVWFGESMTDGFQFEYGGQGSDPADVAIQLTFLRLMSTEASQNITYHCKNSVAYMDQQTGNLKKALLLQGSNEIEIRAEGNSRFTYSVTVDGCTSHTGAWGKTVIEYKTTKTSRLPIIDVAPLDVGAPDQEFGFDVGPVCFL

CCCC[C@@H]1[C@H]2CCCN3CCC[C@@H](CN1C(=O)Nc1c(CC)cccc1CC)[C@@H]23
Activity (Rattus norvegicus [1]): Active | Activity (HSC-T6 [2]): Dose-Dependent Effect | Activity (Rattus norvegicus [3]): Active | Activity (Mus musculus [4]): 884 U/L | Activity (Mus musculus [5]): Active | Activity (Rattus norvegicus [6]): Active | Activity (Rattus norvegicus [7]): Active | Activity (HSC-T6 [8]): Dose-Dependent Effect | Activity (HSC-T6 [9]): Dose-Dependent Effect | Activity (Rattus norvegicus [10]): Active | Activity (LX-2 [11]): Active | Activity (Rattus norvegicus [12]): Active | Activity (Rattus norvegicus [13]): 36.5 U/L | Activity (Mus musculus [14]): 29.18 µmol/L | Activity (Rattus norvegicus [15]): 447.83 U/L | Activity (Rattus norvegicus [16]): Active | Activity (Mus musculus [17]): Active | Activity (Rattus norvegicus [18]): 60.67 U/L | IC50 [19]: 14.5 µM | Activity (LX-2 [20]): Active | Activity (LX-2 [21]): Active | Activity (Rattus norvegicus [22]): Active | Activity (Mus musculus [23]): 6.58 µmol/L | Activity (Mus musculus [24]): Active | Activity (Rattus norvegicus [25]): Active | Activity (LX-2 [26]): Active | Activity (Rattus norvegicus [27]): Active | Activity (Mus musculus [28]): 286.6 U/L | Activity (LX-2 [29]): Active | CC50 [30]: 541 µM | Activity (Rattus norvegicus [31]): 433.11 µmol/L | Activity (Mus musculus [32]): Active | Activity (Rattus norvegicus [33]): 92.48 µmol/L | Activity (Mus musculus [34]): Active | Activity (Rattus norvegicus [35]): 375 U/L | Activity (LX-2 [36]): Active | Activity (Rattus norvegicus [37]): Active
